Patent publication US7425533B2, “Modified hirudin proteins and T-cell epitopes in hirudin” (Merck Patent GmbH, priority 2003, dated 2008)
Values joined by “and” are separate entries in the source; they are usually repeats but may differ in a detail not shown here. Identical values can stand only once. Blank lines part the entries; values can stand above or below the molecule they belong to.

Assays:
[1] = test system: human PBMCs; assay: T-cell epitope mapping, PBMC proliferation (tritiated thymidine) with 15 mer hirudin peptides; format: cell-based; details: for donor response (SI>2): initial analysis, 25 donor samples, peptides at 1 μM and 10 μM, 7 days
[2] = test system: PBMC from healthy donors; assay: time-course T-cell assay, PBMC proliferation with WT and variant peptides; format: cell-based, human; details: cohorts of 20 healthy donors, SI>2 at any time point, days 6, 7, 8 and 9
Excerpt: “Time course assay” refers to a biological assay such as a proliferation assay in which determinations of activity are made sequentially over a period of time. In the present context, a “time course T-cell assay”, refers to the determination of T-cell proliferation in response to a test immunogen (peptide) at multiple times following exposure to the test immunogen. The terms “time course T-cell assay” and “time course immunogenicity assay” may be used interchangeably herein.
Bulk cultures of 2-4×10^6 PBMC/well were established from 20 healthy donor samples in 24 well plates. Cells were incubated for 6 to 9 days with WT and variant peptides spanning the immunogenic regions (see Table 4). T cell proliferation was assessed by tritiated thymidine incorporation on days 6, 7, 8 and 9. Proliferation was assessed at each time point, by gently resuspending the bulk cultures and removing samples of PBMC, that were then incubated in triplicate wells of U-bottomed 96 well plate with 1 μCi/well tritiated thymidine for 18 hours as described above.
The time course assay was used to test variant peptides containing substitutions over WT. Substitutions were made at key locations where there was expectation that the substitution would prevent binding to MHC class II and therefore, subsequent T cell proliferation in the assay. FIG. 2 and FIG. 3 respectively show exemplary donor responses over the time course and overall response frequencies.

[3] = target: serine protease thrombin (Homo sapiens, UniProt P00734); details: native hirudin; cited from earlier work
[4] = cited from earlier work
[5] = target: T1, thrombin (Homo sapiens, UniProt P00734); assay: chromogenic thrombin inhibition assay; format: biochemical; details: chromogenic substrate H-D-Phe-Pep-Arg-pNA, 37° C., relative to WT hirudin
T1 construct: purchased Diagnostica Stago (via Axis Shield Diagnostics, Dundee, UK) Stachrom HCII assay kit (catalogue number not given)
Excerpt: A “thrombin inhibition assay” according to the present context means an in vitro assay able to provide a reading of the functional capability of the test protein. In the present instance this means the ability of a given hirudin mutein to evoke a specific measurable chromogenic response. Particularly suitable assays are exemplified herein using thrombin and the chromogenic thrombin substrate H-D-Phe-Pep-Arg-pNA. Other assay formats can be contemplated to also provide quantitative estimations of specific activity of the test molecules and permit ED50 determinations. […]
The functional activity of the modified hirudin proteins was assessed using a chromogenic thrombin inhibition assay. […] The chromogenic substrate H-D-Phe-Pep-Arg-pNA is then added and any residual free thrombin present will cleave the substrate to form H-D-Phe-Pep-Arg-OH and pNA that can then be detected spectrophotometrically at 405 nm […]
The plate was warmed to 37° C. for 5 minutes followed by addition of 40 μl thrombin and incubated for 120 seconds at 37° C. with shaking. […] 40 μl acetic acid was added to quench reaction and the plate was read spectrophotometrically at 405 nm. Absorbance at 405 nm vs hirudin concentration was plotted using Sigma plot (Sigma Poole, UK) and IC50 values calculated by fitting a sigmoidal equation. […]

Molecule: 10: 15 mer hirudin peptide GNKCILGSDGEKNQC, SEQ ID NO: 96 (hirudo medicinalis) [Peptide 10]
donor response (SI>2) [1]: 8%

Molecule: 15: 15 mer hirudin peptide VTGEGTPKPESHNDG, SEQ ID NO: 101 (hirudo medicinalis) [Peptide 15]
final response rate ([1]; across a total of 55 donor samples): 4% | donor response (SI>2) [1]: 8%

Molecule: CAAGSDGEKNQCVTG (modified hirudin sequence)
% donor response in time course [2]: 5%

Molecule: CEKGSDGEKNQCVTG (modified hirudin sequence)
% donor response in time course [2]: 10%

Molecule: CILGSDGEKNQCVTG (hirudo medicinalis) [reference compound]
% donor response in time course [2]: 25%

Molecule: CRHGSDGEKNQCVTG (modified hirudin sequence)
% donor response in time course [2]: 5%

Molecule: Hirudin
Ki [3]: 10^−11 to 10^−14 M

Molecule: [Leu^1, Thr^2]-63-desulphohirudin [lepirudin]
fatal outcomes ([4]; among the severe anaphylaxis cases, previous treatment course 1 to 12 weeks earlier): 4 | patients judged to have had severe anaphylaxis ([4]; between 1994 and 2002, within minutes of intravenous administration): 9 patients

Relative Activity (Ratio of variant IC50/WT IC50) [5]: 0.70
B1: M 25: hirudin mutein I29R L30R, SEQ ID NO: 28 (protein)
chain: VVYTDCTESGQNLCLCEGSVVCGQGNKCRRGSDGEKNQCVTGEGTPKPESHNDGDFEEIPEEYLQ
modifications: ends and bridges not checked

Relative Activity (Ratio of variant IC50/WT IC50) [5]: 1.0 and 0.55
B2: M 19: hirudin mutein I29E L30K, SEQ ID NO: 22 (protein)
chain: VVYTDCTESGQNLCLCEGSVVCGQGNKCEKGSDGEKNQCVTGEGTPKPESHNDGDFEEIPEEYLQ
modifications: ends and bridges not checked
